Article PMC7377239, “Cardiovascular Effects of Polychlorinated Biphenyls and Their Major Metabolites” (Environmental Health Perspectives, 2020)
Read-outs that look alike come from different tables or passages of the source.

System: iCell cardiomyocytes (human iPSC-derived cardiomyocytes)
Assay: Intracellular Ca2+ flux / beating parameters in iCell cardiomyocytes (FLIPR tetra), 90 min or 24 h
Format: cell-based
Conditions: Homo sapiens, Cardiomyocyte, 0.00 µM = 100.00; for activity at 0.1 µM: 0.10 µM
Outline: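 PODs were defined as the concentration crossing one SD of the vehicle-control means (0.5% DMSO) on four-parameter logistic fits of Ca2+ trace metrics (peak height, frequency, peak-spacing CV, decay/rise ratio). Traces came from 100 s, 8 Hz FLIPR reads at 37 °C on calcium-dye-loaded iCell cardiomyocytes. Before reading, cells were treated for 90 min or 24 h from 5× chemical plates spanning 0.05–500 µM, in triplicate.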

[1] = 1.5 h, 90min, read-out: cm.amp.avg.90min
[2] = 1.5 h, 90min, read-out: cm.amp.cv.90min
[3] = 1.5 h, 90min, read-out: cm.bpm.90min
[4] = 1.5 h, 90min, read-out: cm.decay.rise.90min
[5] = 1.5 h, 90min, read-out: cm.spacing.cv.90min
[6] = 24 h, 24hrs, read-out: cm.amp.avg.24hrs
[7] = 24 h, 24hrs, read-out: cm.amp.cv.24hrs
[8] = 24 h, 24hrs, read-out: cm.bpm.24hrs
[9] = 24 h, 24hrs, read-out: cm.decay.rise.24hrs
[10] = 24 h, 24hrs, read-out: cm.spacing.cv.24hrs

COc1cc(Cl)c(-c2cc(Cl)ccc2Cl)cc1Cl [4-OMe PCB52]
activity at 0.01 µM [1]: 106%
activity at 0.01 µM [2]: 122%
activity at 0.01 µM [3]: 97.8%
activity at 0.01 µM [4]: 97.5%
activity at 0.01 µM [5]: 105%
activity at 0.1 µM [1]: 106%
activity at 0.1 µM [2]: 92.7%
activity at 0.1 µM [3]: 102%
activity at 0.1 µM [4]: 99.6%
activity at 0.1 µM [5]: 88%
activity at 1 µM [1]: 107%
activity at 1 µM [2]: 113%
activity at 1 µM [3]: 100%
activity at 1 µM [4]: 97%
activity at 1 µM [5]: 94.3%
activity at 10 µM [1]: 83.3%
activity at 10 µM [2]: 119%
activity at 10 µM [3]: 120%
activity at 10 µM [4]: 91.9%
activity at 10 µM [5]: 108%
activity at 100 µM [1]: 0%
activity at 100 µM [2]: 0%
activity at 100 µM [3]: 0%
activity at 100 µM [4]: 0%
activity at 100 µM [5]: 0%
activity at 0.01 µM [6]: 89%
activity at 0.01 µM [7]: 35.4%
activity at 0.01 µM [8]: 54.4%
activity at 0.01 µM [9]: 45.5%
activity at 0.01 µM [10]: 56.2%
activity at 0.1 µM [6]: 164%
activity at 0.1 µM [7]: 69.5%
activity at 0.1 µM [8]: 109%
activity at 0.1 µM [9]: 100%
activity at 0.1 µM [10]: 108%
activity at 1 µM [6]: 166%
activity at 1 µM [7]: 70.7%
activity at 1 µM [8]: 95.5%
activity at 1 µM [9]: 109%
activity at 1 µM [10]: 102%
activity at 10 µM [6]: 138%
activity at 10 µM [7]: 81.2%
activity at 10 µM [8]: 104%
activity at 10 µM [9]: 107%
activity at 10 µM [10]: 102%
activity at 100 µM [6]: 0%
activity at 100 µM [7]: 0%
activity at 100 µM [8]: 0%
activity at 100 µM [9]: 0%
activity at 100 µM [10]: 0%
